Results taken from patent US20250213647A1, “CHEMOKINE RECEPTORS AND ALPHA1 ADRENERGIC RECEPTORS/VASOPRESSIN RECEPTORS 1A HETEROMERS AS DRUG TARGETS FOR DISEASE” (UNIVERSITY OF SOUTH FLORIDA, priority 2022, published 2025).
Values belong to the compound of their own block, whether it stands above or below them.

Key:
[1] = test system: CXCR4; conditions: previous observations (Gao, 2018); cited from earlier work
[2] = test system: CR heteromerization partners of α1B/D-ARs (CCR1, CCR2, CXCR4); assay: Chemotaxis assay, THP-1 cells, CR heteromerization partners of α1B/D-ARs taken together; type: cell-based, human; conditions: FIG. 17D-17F
Protocol: (§1) Cell migration was measured employing the Neuroprobe (Gaithersburg, MD, USA) ChemoTx® Disposable Chemotaxis System. A 96-well Boyden-chamber (30 μL/well, 8 μm pores, 1×10^5 pores/cm^2 pore density) was selected for all chemotaxis experiments. Bottom wells of the Boyden-chamber were loaded with 30 μL of test substances at various concentrations. Top wells of the membrane were loaded with 25 μL of THP-1 cells, THP-1_ADRA1B^KO, wild type THP-1 cells after clonal expansion (=control for THP-1_ADRA1B^KO) or freshly isolated monocytes (200 cells/μL). THP-1 cells were suspended in depleted RPMI1640 (0.5% HyClone™ fetal bovine serum, Sigma); Freshly isolated monocytes were suspended in RPMI1640 (0.5% human platelet poor plasma, Sigma). After 3 hours, transmigrated cells were counted utilizing the Cytation 1 plate reader (BioTek) by direct imaging in high contrast bright field (4×) and post-imaging particle analyses with Gen5 (v3.05) Imaging & Microscopy Software (BioTek). The chemotactic index (CI) was calculated as the ratio of cells that transmigrated in the presence versus the absence of the test solutions.

[3] = test system: CXCR1; assay: Chemotaxis assay, THP-1 cells toward CXCL8 (CXCR1-mediated); type: cell-based, human; conditions: CXCL8 10 nM, FIG. 13B
Protocol: as §1

[4] = test system: CCR1; assay: Chemotaxis assay, THP-1 cells toward CCL23 (CCR1-mediated); type: cell-based, human; conditions: CCL23 10 nM, mean±SE, read-out: IC50 for inhibition of CCR1-mediated chemotaxis
Protocol: as §1

[5] = test system: CXCR4; assay: Chemotaxis assay, THP-1 cells toward CXCL12 (CXCR4-mediated); type: cell-based, human; conditions: CXCL12 100 nM, mean±SE, read-out: IC50 for inhibition of CXCR4-mediated chemotaxis
Protocol: as §1

[6] = biological target: CCR2 (Homo sapiens, UniProt P41597); assay: Chemotaxis assay, THP-1 cells toward CCL2 (CCR2-mediated); type: cell-based; parameters: host or cells: THP-1; conditions: CCL2 10 nM, mean±SE, read-out: IC50 for inhibition of CCR2-mediated chemotaxis
Protocol: as §1

[7] = test system: AVPR1A heteromerization partners CCR2, CCR8 and CXCR4; assay: Chemotaxis assay, THP-1 cells, AVPR1A heteromerization partners CCR2, CCR8 and CXCR4; type: cell-based; conditions: Homo sapiens, FIG. 13A, 13C, read-out: IC50, inhibition of chemotaxis mediated via CCR2, CCR8 and CXCR4

CCR2, sequence (P41597 whole entry): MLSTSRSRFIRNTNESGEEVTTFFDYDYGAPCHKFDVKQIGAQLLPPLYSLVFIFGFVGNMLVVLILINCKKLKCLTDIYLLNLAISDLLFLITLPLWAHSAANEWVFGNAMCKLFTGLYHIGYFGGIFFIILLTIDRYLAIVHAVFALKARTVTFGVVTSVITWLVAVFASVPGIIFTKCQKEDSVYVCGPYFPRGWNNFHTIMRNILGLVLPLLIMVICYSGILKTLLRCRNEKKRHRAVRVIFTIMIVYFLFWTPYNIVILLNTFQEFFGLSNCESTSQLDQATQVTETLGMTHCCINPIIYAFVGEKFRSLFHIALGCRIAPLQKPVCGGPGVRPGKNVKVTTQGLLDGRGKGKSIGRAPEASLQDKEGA

Compound: COc1cc2nc(N3CCN(C(=O)c4ccco4)[C@H]4CCCC[C@H]43)nc(N)c2cc1OC (racemic) [cyclazosin]
CXCR4-mediated chemotaxis of primary human vascular smooth muscle cells [1]: inhibit

Compound: COc1ccccc1N1CCN(CCCNc2c(C)c(=O)n(C)c(=O)n2C)CC1 [5-Methylurapidil]
CR-mediated chemotaxis (CCR1, CCR2 and CXCR4) [2]: did not affect

Compound: NC(=O)CC[C@@H]1NC(=O)[C@H](Cc2ccccc2)NC(=O)[C@H](Cc2ccc(O)cc2)NC(=O)[C@@H](N)CSSC[C@@H](C(=O)N2CCC[C@H]2C(=O)N[C@@H](CCCN=C(N)N)C(=O)NCC(N)=O)NC(=O)[C@H](CC(N)=O)NC1=O [AVP, arginine vasopressin]
chemotaxis mediated by CXCR1 [3]: did not affect

IC50 [4]: 10.5 ± 0.91 nM
IC50 [5]: 2.87 ± 0.6 nM
IC50 [6]: 0.93 ± 0.61 nM
Compound: COc1ccccc1N1CCN(CCN2C(=O)CC3(CCCC3)CC2=O)CC1 [BMY7378]

IC50 [7]: 0.037 to 0.218 nM
Compound: Cc1nc2c([nH]1)-c1ccccc1N(C(=O)c1ccc(NC(=O)c3ccccc3-c3ccccc3)cc1)CC2 [Conivaptan]
